Experimental data from patent US6600063B1, “Derivatives of phenyl 4-aminosalicylate and method of making the same” (priority 2000, dated 2003).
Converted amounts (≈) assume the structure as drawn.

Legend:
[1] = test system: Mycobacterium tuberculosis H37Rv (ATCC 27294); test: BACTEC 460 radiometric system, primary screen and MIC against M. tuberculosis H37Rv; format: cell-based; conditions: for MIC: Mycobacterium tuberculosis; for % Inhibition: primary screen at 12.5 or 6.25 ug/ml
[2] = test system: Mycobacterium tuberculosis H37Rv (ATCC 27294); test: Microplate Alamar Blue Assay (MABA), primary screen and MIC against M. tuberculosis H37Rv; format: cell-based; set-up: MIC H37Rv: unit not given beside the values; conditions: for MIC: Mycobacterium tuberculosis, M. tuberculosis H37Rv; for MIC / % Inhibition: ASSAY ALAMAR; for % Inhibition: primary screen at 12.5 or 6.25 ug/ml
M.tuberculosis (H37Rv) = conditions: compared with 4-aminosalicylic acid; cited from earlier work
M. tuberculosis Erdman = test: MIC in the MABA against drug-sensitive strain Erdman; format: cell-based; conditions: Mycobacterium tuberculosis, read-out: MIC ERDMA (ug/ml)
[3] = test system: M. tuberculosis Erdman (ATCC 35801) in mouse bone marrow macrophages; test: Killing of M. tuberculosis Erdman in monolayers of mouse bone marrow macrophages (EC90, EC99); format: cell-based, Mycobacterium tuberculosis
[4] = primary screen, BACTEC, M. tuberculosis H37Rv, read-out: MIC

With `O=C(Oc1ccccc1)c1ccc(/N=C/c2ccc([N+](=O)[O-])cc2)cc1O` [SAMPLE ID 133652] as the molecule, how does the MIC ([1]; actual MIC, ASSAY BACTEC, M. tuberculosis H37Rv) read?
Its MIC is 0.1 µg/mL (≈ 0.276 µM).

And the MIC ([1]; primary screen, BACTEC, M. tuberculosis H37Rv)?
The MIC was < 12.5 µg/mL.

What about the “% Inhibition” value ([1]; BACTEC, M. tuberculosis H37Rv) of the same molecule?
Its value is 97%.

What does the source list for `CCC(=O)Nc1ccc(C(=O)Oc2ccccc2)c(OC(=O)CC)c1` [SAMPLE ID 138392]?
MIC [2]: 0.39 µg/mL (≈ 1.14 µM); % Inhibition [2]: 94%

Which MIC [2] does the source give for `O=C(Oc1ccccc1)c1ccc(/C=N/c2ccccc2[N+](=O)[O-])cc1O` [SAMPLE ID 139235] here?
The MIC was 0.025 µg/mL (≈ 0.069 µM).

What about the “% Inhibition” value [2] of the same molecule?
Its value is 97%.

Which MIC [1, 4] does the source give for `O=Cc1ccc(/C=N/c2ccc(C(=O)Oc3ccccc3)c(O)c2)cc1` [SAMPLE ID 130069] here?
Its MIC is < 12.5 µg/mL.

What about the “% Inhibition” value ([1]; BACTEC, M. tuberculosis H37Rv) of the same molecule?
Its value is 99%.

Which “destruction of the virulent strain of M.tuberculosis (H37Rv)” value (M.tuberculosis (H37Rv)) does the source give for `Nc1ccc(C(=O)Oc2ccccc2)c(O)c1` [phenyl 4-aminosalicylate] here?
The value was “even better than 4-aminosalicylic acid”.

Which MIC ([1]; reference drug in the COMMENT column of the primary screen, read-out: MIC of RMP vs. M. tuberculosis) does the source give for `CO[C@H]1/C=C/O[C@@]2(C)Oc3c(C)c(O)c4c(O)c(c(/C=N/N5CCN(C)CC5)c(O)c4c3C2=O)NC(=O)/C(C)=C\C=C\[C@H](C)[C@H](O)[C@@H](C)[C@@H](O)[C@@H](C)[C@H](OC(C)=O)[C@@H]1C` [RMP, rifampin, reference compound] here?
The MIC was 0.25 µg/mL.

For `O=C(Oc1ccccc1)c1ccc(NC(=S)Nc2ccccc2)cc1O` [SAMPLE ID 131326], which MIC (M. tuberculosis Erdman) is on record?
The MIC was 0.2 µg/mL (≈ 0.549 µM).

What about the “MIC H37Rv” value ([2]; Table 9 strain panel, drug-sensitive strain H37Rv) of the same molecule?
The value was 1.56.

What about the EC99 ([3]; 99% reduction in colony forming units at 7 days, bactericidal activity) of the same molecule?
Its EC99 is 0.92 µg/mL.

What about the EC90 ([3]; Mycobacterium tuberculosis, Bone marrow macrophage, 168 h, 90% reduction in colony forming units at 7 days, bacteriostatic activity) of the same molecule?
Its EC90 is 0.203 µg/mL (≈ 0.557 µM).

What about the MIC ([1]; Table 4, assay not given, read-out: MIC) of the same molecule?
Its MIC is 0.2 µg/mL (≈ 0.549 µM).

What about the MIC ([1]; actual MIC, ASSAY BACTEC, M. tuberculosis H37Rv, read-out: MIC) of the same molecule?
The MIC was 0.2 µg/mL (≈ 0.549 µM).

And the MIC [1, 4]?
Its MIC is < 12.5 µg/mL.

What about the “% Inhibition” value ([1]; BACTEC, M. tuberculosis H37Rv) of the same molecule?
The value was 100%.
